Experimental data taken from patent US9352049B2, “Ligand-therapeutic agent conjugates, silicon-based linkers, and methods for making and using them” (Albany Molecular Research, Inc., priority 2013, dated 2016).

Assays:
[1] = Cleavage study of silyl conjugates at pH 4.5 (1:1 THF:0.05 M acetate buffer, 37° C., HPLC); assay type: physicochemical; conditions: HPLC over 24 hours
Experimental: (§1) To study the release properties of the silyl conjugates, the conjugates were subject to hydrolysis conditions at both pH 7.4 and pH 4.5 to simulate blood and endosomes/lysosome environments, respectively.
The benzyl ester intermediates from Example 11 (step A), Example 12, Example 13, Example 14 (step A), and Example 15 were each dissolved in a 1:1 mixture of THF:0.05 M acetate buffer (pH 4.5) and heated to 37° C. with stirring. The mixture was analyzed with HPLC at T=1, 2, 3, 4, 5, 7 and 24 hours via Method B (see General Procedures in Example 1). Aliquots were quenched in a 1:1 acetonitrile:triethylamine solvent mixture to halt the hydrolysis reaction and allowed to stand up to 48 hours before HPLC analysis.

[2] = Cleavage study of silyl conjugates at pH 7.4 (THF:0.01 M PBS buffer, 37° C.); assay type: physicochemical; conditions: pH 7.4, 37° C., after 24 hours
Experimental: as §1
Example 12 and Example 15 were dissolved in THF:0.01 M PBS buffer (pH 7.4) and heated to 37° C. with stirring for over 20 hours. […] Additionally, Example 11 was trapped with methyl-3-mercaptopropionate to approximate a bioconjugate.

Compound: CC[C@]1(O)CC2CN(CCc3c([nH]c4ccccc34)[C@@](C(=O)OC)(c3cc4c(cc3OC)N(C)[C@H]3[C@@](O)(C(=O)OC)[C@H](O[Si]5(CCCCC(=O)NCCOCCN6C(=O)CC(SCCC(=O)OC)C6=O)CCCCC5)[C@]5(CC)C=CCN6CC[C@]43[C@@H]65)C2)C1 (stereo partly drawn) [Example 19, (3aR,3a^1R,4R,5S,10bR)-methyl 3a-ethyl-9-((5S,7R,9S)-5-ethyl-5-hydroxy-9-(methoxycarbonyl)-2,4,5,6,7,8,9,10-octahydro-1H-3,7-methano[1]azacycloundecino[5,4-b]indol-9-yl)-5-hydroxy-8-methoxy-4-((1-(5-((2-(2-(3-((3-methoxy-3-oxopropyl)thio)-2,5-dioxopyrrolidin-1-yl)ethoxy)ethyl)amino)-5-oxopentyl)silinan-1-yl)oxy)-6-methyl-3a,3a^1,4,5,5a,6,11,12-octahydro-1H-indolizino[8,1-cd]carbazole-5-carboxylate]
- hydrolysis (release of desilylated parent vinca) in acidic media [1]: undergo parent vinca release at a rate comparable to the corresponding benzyl ester from Example 11 (step A)
- desilylation at pH 7.4 [2]: no desilylation was observed
